Results reported in US11066408B2, “Crystalline binary sodium salts of 5-methyl-(6S)-tetrahydrofolic acid with organic bases” (MERCK PATENT GMBH, priority 2017, dated 2021).

Method: The measurement of the kinetic solubility was conducted as described in the experimental part.
0.5 ml of purified/de-ionized water (for instance water for chromatography) is added.
2.535 ml of purified/de-ionized water (for instance water for chromatography) is added to the solid using an adjustable volumetric pipette. The mixture is vigorously agitated at room temperature and briefly sonicated.
Then 0.785 ml of purified/de-ionized water is added.
Then 1.0 ml of purified/de-ionized water is added.

CN1c2c([nH]c(N)nc2=O)NC[C@@H]1CNc1ccc(C(=O)N[C@@H](CCC(=O)[O-])C(=O)[O-])cc1.[Ca+2] [calcium salt of 5-methyl-(6S)-tetrahydrofolic acid]
kinetic solubility in water (purified/de-ionized water, room temperature, agitated (briefly sonicated), not assay corrected): smaller than 10 mg per 1 ml of water | time until a clear solution is obtained (weighed solid plus water, agitated at room temperature): No clear solution can be obtained
